Measurements from US20080279897A1, “Method of Treating Cellular Damage” (MEDVET SCIENCE PTY. LTD., priority 2005, published 2008).

What was measured:
ICAM-1 = assay: Cell surface ICAM-1 expression in HUVEC by flow cytometry; type: cell-based, human
Method: (§1) Human umbilical vein EC (HUVEC) and bovine aortic EC (BAEC) were routinely cultured in this laboratory as previously described (Verrier et al., 2004, Circ. Res. 94:1515-1522). In all experiments EC ranging from passage 2-6 were used. For the experimental studies, EC were allowed to reach confluence in the regular growth media. Medium was then changed to (i) EBM (Clonetics, Walkersville, Md.) containing 1% FCS and 5.5 mM glucose (normal glucose, NG); (ii) NG medium supplemented with additional glucose to final concentration of 22 mM (high glucose); or (iii) NG medium containing 16.5 mM L-glucose or mannitol that served as an osmotic control for the high glucose medium.
(§2) After the indicated treatment, HUVECs were incubated with primary monoclonal antibodies to VCAM-1, ICAM-1 and E-selectin or an isotype-matched non-relevant antibody for 30 min. Cells were then incubated with FITC-conjugated secondary antibody and fixed in 2.5% formaldehyde. The expression of cell-surface adhesion molecules was measured as fluorescence intensity by use of a Coulter Epics Profile XL flow cytometer, as described previously (Verrier et al., 2004, supra).

SphK [1] = assay: SphK activity in HUVEC; type: cell-based, human; settings: for effect on SphK activity: 22 mmol/L, osmotic control; for effect on high glucose-induced increases in SphK activity: PD98059 10 μM, U0126 2 μM
Method: as §1, with “([…]” for “(Verrier”, “medium. As described previously (Xia et al., 1999, J. Biol. […] The formation of S1P in vivo was measured in the permeabilized cells as previously described (Xia et al., 1998, Proc. Natl. Acad. Sci. U.S.A 95:14196-14201).” for “medium.”

VCAM-1 = assay: Cell surface VCAM-1 expression in HUVEC by flow cytometry; type: cell-based, human
Method: as §1, §2

NF-κB [2] = assay: NF-κB electrophoretic mobility shift assay in HUVEC; type: cell-based, human; settings: 2.5 μM, gel shift
Method: (§3) Nuclear extracts were prepared from EC exposed to NG or HG with or without the indicated treatment. The double-stranded oligonucleotides used as probes in the experiments included 5′-[…]-3′ (SEQ ID NO: 1) which contains a consensus NF-κB binding site in E-selectin promoter (underlined). Gel mobility shift of a consensus NF-κB oligonucleotide was performed by incubating a ^32P-labelled NF-κB probe with 4 μg of nuclear proteins as described previously (Xia et al., 1998, supra).

E-selectin = assay: Cell surface E-selectin expression in HUVEC by flow cytometry; type: cell-based, human; settings: for effect on E-selectin expression: 5 μM for 6 hrs
Method: as §1, §2

PKC = PKC activity assay in situ in HUVEC; type: cell-based, human; settings: 2.5 μmol/L, high glucose
Method: PKC activity was measured in situ as described previously (Xia et al., 1996, J. Clin. Invest 98:2018-2026). Briefly, cells were seeded in 24-well plates and exposed to NG or HG for 3 days. After the indicated treatments, total PKC activity was then determined in permeabilized cells in the presence of 10 μM [γ^32P]ATP (5000 cpm/pmol) and the PKC-specific peptide substrate (RKRTLRRL, 200 μM). The activity was then quantified by scintillation counting and normalized to total protein levels.

SphK [3] = assay: SphK activity in BAEC (parental or transfected); type: cell-based, bovine; settings: for effect on SphK activity: BAEC, 22 mmol/L, osmotic control
Method: as §1
(§4) FLAG-tagged human wild-type SphK1 cDNA and the dominant negative SphK1^G82D were sub-cloned into pcDNA3 plasmids (Invitrogen, Melbourne, Australia) as previous described (Pitson et al., 2000, J. Biol. Chem. 275:33945-33950). Lipofectamine 2000 (Invitrogen) mediated transfection was performed in BAEC according to the manufacturer's protocols. For stable expression, the transfectants were selected in medium containing 800 μg/ml G418 (Invitrogen). The resulting non-clonal pools of G418-resistant transfected cells were then collected and used to avoid clonal variability. The expression of FLAG-tagged transgenes was determined by Westernblot assay with the antibodies against FLAG (M2, Sigma, Clayton, Australia).
(§5) As described previously (Xia et al., 1999, J. Biol. Chem. 274:34499-34505), SphK activity was routinely determined using D-erythro-sphingosine (Biomol, Plymouth Meeting, Pa.) and [γ^32P]ATP (Geneworks, Adelaide, Australia) as substrates, and defined as picomoles of S1P formed per min per mg protein. The formation of S1P in vivo was measured in the permeabilized cells as previously described (Xia et al., 1998, Proc. Natl. Acad. Sci. U.S.A 95:14196-14201).

S1P formation = S1P formation in endothelial cells; type: cell-based, human; settings: 22 mmol/L
Method: as §1, §5

[4] = test system: U937 cells adhering to HUVEC; assay: Adherence of U937 cells to HUVEC; type: cell-based, human; settings: 50 ng/ml
Method: (§6) U937 cells (CRL 1593.2; ATCC) were grown in RPMI-1640 medium (GIBCO BRL) containing 10% FCS, collected by low-speed centrifugation and resuspended at a density of 2×10^5 cells/ml in medium without FCS. EC were seeded into 24-well plates and cultured with NG or HG medium for 3 days after confluence. After washing twice with warm RPMI-1640 medium, the U937 cell suspension (100 μl/well) was added and incubated for 30 minutes at 37° C. Non-adherent cells were removed by rinsing the plates three times with PBS, and the number of adherent cells was then counted under microscopy with at least 6 fields per well culture being quantified.

[5] = test system: U937 cells adhering to BAEC; assay: Adherence of U937 cells to transfected BAEC; type: cell-based, bovine; settings: stably transfected BAEC, 22 mM glucose 3 days
Method: as §4, §6

NF-κB [6] = assay: NF-κB electrophoretic mobility shift assay in BAEC; type: cell-based, bovine; settings: gel shift
Method: as §4, §3

[7] = 2.5 μmol/L, 3 days high glucose

## CCCCCCCCCCCCC/C=C/[C@@H](O)[C@H](CO)N(C)C [DMS, N′N′-dimethylsphingosine]
ICAM-1; [7]
  effect on high glucose-induced increase in ICAM-1 expression: completely abolished
SphK [1]; 2.5 μmol/L
  inhibition of high glucose-induced SphK activity: capable of inhibiting
VCAM-1; [7]
  effect on high glucose-induced increase in VCAM-1 expression: completely abolished
NF-κB [2]
  effect on high glucose-induced NF-κB activation: completely inhibited
E-selectin; [7]
  effect on high glucose-induced increase in E-selectin expression: completely abolished
PKC
  inhibitory effect on PKC activity: no inhibitory effect

## CN(C)CCCn1cc(C2=C(c3c[nH]c4ccccc34)C(=O)NC2=O)c2ccccc21 [GF109203X]
SphK [1]; 5 μM, 30 min
  attenuation of high glucose-induced increases in SphK activity: ~50%

## O=C[C@@H](O)[C@H](O)[C@@H](O)[C@@H](O)CO [L-glucose]
SphK [3]
  effect on SphK activity: neither mannitol nor L-glucose at 22 mmol/L had any significant effects
S1P formation
  effect on S1P production: fails to activate sphingosine kinase or effect S1P production
SphK [1]
  effect on SphK activity: neither mannitol nor L-glucose at 22 mmol/L had any significant effects

## COc1cccc(-c2cc(=O)c3ccccc3o2)c1N [PD98059]
SphK [1]; 30 min
  effect on high glucose-induced increases in SphK activity: completely prevented

## CCCCCCCCCCCCC/C=C/[C@@H](O)[C@@H](N)COP(=O)(O)O [S1P, sphingosine-1-phosphate]
E-selectin
  effect on E-selectin expression: significant increase

## N#CC(=C(/N)Sc1ccccc1N)/C(C#N)=C(\N)Sc1ccccc1N [U0126]
SphK [1]; 30 min
  effect on high glucose-induced increases in SphK activity: completely prevented

## CCCCCCCCCCCCCCC[C@@H](O)[C@@H](N)COP(=O)(O)O [dihydro-S1P, sphinganine-1-phosphate]
E-selectin
  effect on E-selectin expression: no significant effect

## OC[C@@H](O)[C@@H](O)[C@H](O)[C@H](O)CO [mannitol]
SphK [3]
  effect on SphK activity: neither mannitol nor L-glucose at 22 mmol/L had any significant effects
S1P formation
  effect on S1P production: fails to activate sphingosine kinase or effect S1P production
SphK [1]
  effect on SphK activity: neither mannitol nor L-glucose at 22 mmol/L had any significant effects

## lysophosphatidic acid [LPA]
E-selectin
  effect on E-selectin expression: significant increase

## pertussis toxin
ICAM-1; 50 ng/ml, vs untreated cells
  inhibition of high glucose-induced expression of ICAM-1: 42%
[4]
  number of leukocytes adhering to high glucose-stimulated EC: partially, but significantly, reduced
VCAM-1; 50 ng/ml, vs untreated cells
  inhibition of high glucose-induced expression of VCAM-1: 30%
E-selectin; 50 ng/ml, vs untreated cells
  inhibition of high glucose-induced expression of E-selectin: 35%
E-selectin; 5 μM LPA 6 hrs, PTX 50 ng/ml
  inhibition of LPA-induced E-selectin expression: completely inhibited
E-selectin; 5 μM S1P 6 hrs, PTX 50 ng/ml
  inhibition of S1P-induced E-selectin expression: 32%

B1: SphK^WT: FLAG-tagged wild-type human SphK1 stably overexpressed in BAEC by transfection (protein, UniProt Q9NYA1 1-384, looked up)
Sphingosine kinase 1: MDPAGGPRGVLPRPCRVLVLLNPRGGKGKALQLFRSHVQPLLAEAEISFTLMLTERRNHARELVRSEELGRWDALVVMSGDGLMHEVVNGLMERPDWETAIQKPLCSLPAGSGNALAASLNHYAGYEQVTNEDLLTNCTLLLCRRLLSPMNLLSLHTASGLRLFSVLSLAWGFIADVDLESEKYRRLGEMRFTLGTFLRLAALRTYRGRLAYLPVGRVGSKTPASPVVVQQGPVDAHLVPLEEPVPSHWTVVPDEDFVLVLALLHSHLGSEMFAAPMGRCAAGVMHLFYVRAGVSRAMLLRLFLAMEKGRHMEYECPYLVYVPVVAFRLEPKDGKGVFAVDGELMVSEAVQGQVHPNYFWMVSGCVEPPPSWKPQQMPPPEEPL
modifications: FLAG tag
notes: FLAG-tagged wild-type human SphK1 stably overexpressed in BAEC by transfection
SphK [3]; stably transfected BAEC
  basal level of SphK activity, higher than control cells: 10 fold
[5]
  number of leukocytes adhering to high glucose-stimulated BAEC: markedly enhanced

B2: SphK^G82D: point mutation of human SphK1, dominant-negative mutant, stably expressed in BAEC by transfection (protein, UniProt Q9NYA1 1-384, looked up, variant G82D)
Sphingosine kinase 1: MDPAGGPRGVLPRPCRVLVLLNPRGGKGKALQLFRSHVQPLLAEAEISFTLMLTERRNHARELVRSEELGRWDALVVMSGDDLMHEVVNGLMERPDWETAIQKPLCSLPAGSGNALAASLNHYAGYEQVTNEDLLTNCTLLLCRRLLSPMNLLSLHTASGLRLFSVLSLAWGFIADVDLESEKYRRLGEMRFTLGTFLRLAALRTYRGRLAYLPVGRVGSKTPASPVVVQQGPVDAHLVPLEEPVPSHWTVVPDEDFVLVLALLHSHLGSEMFAAPMGRCAAGVMHLFYVRAGVSRAMLLRLFLAMEKGRHMEYECPYLVYVPVVAFRLEPKDGKGVFAVDGELMVSEAVQGQVHPNYFWMVSGCVEPPPSWKPQQMPPPEEPL
SphK [3]; BAEC expressing the mutant, 22 mM glucose 3 days
  SphK activation under high glucose conditions: no SphK activation
NF-κB [6]
  high glucose-induced NF-κB activation in cells expressing the mutant: incapable of activating NF-κB
[5]
  number of leukocytes adhering to high glucose-stimulated BAEC: profoundly attenuated
